The text below walks through data of patent US20230083973A1, “SUBSTITUTED CYCLOPROPYL-2,2'-BIP[…], ANALOGUES THEREOF, AND METHODS USING SAME” (priority 2019, published 2023).

The subject of the first assay is HBsAg. The assay can be described thus: HBsAg assay: inhibition of HBsAg in HepG2.2.15 cells (chemiluminescence immunoassay of supernatant). To be noted: Hepatitis B virus, HepG2.2.15, 144 h, read-out: sAg EC50, HepG2.2.15 cells; HBsAg in supernatant at day 6 after exposure to compound; 0.5% DMSO. Format: cell-based, hepatitis B virus. As to the method: Inhibition of HBsAg was determined in HepG2.2.15 cells. Cells were maintained in culture medium containing 10% fetal calf serum, […], Glutamine, penicillin/streptomycin. Cells were seeded in 96-well collagen-coated plate at a density of 30,000 cells/well. Serially diluted compounds were added to cells next day at the final DMSO concentration of 0.5%. Cells were incubated with compounds for 2-3 days, after which medium was removed. Fresh medium containing compounds was added to cells for additional 3-4 days. At day 6 after exposure of compounds, supernatant was collected, the HBsAg immunoassay (microplate-based chemiluminescence immunoassay kits, CLIA, Autobio Diagnosics Co., Zhengzhou, China, Catalog # CL0310-2) was used to determine the level of HBsAg according to manufactory instruction. Dose-response curves were generated and the EC50 value (effective concentrations that achieved 50% inhibitory effect) were determined using XLfit software. In addition, cells were seeded at a density of 5,000 cells/well for determination of cell viability in the presence and absence of compounds by using CellTiter-Glo reagent (Promega).
Table 1 illustrates EC50 values obtained by the HBsAg assay for selected compounds.
For the compound `COc1cc2ncn(-c3cc([C@@H]4C[C@H]4c4cnc(-c5ncccn5)nc4)cc(F)c3F)c2cc1OC` (relative stereo) [Example 237, trans-1-(5-(2-([2,2′-Bipyrimidin]-5-yl)cyclopropyl)-2,3-difluorophenyl)-5,6-dimethoxy-1H-benzo [d]imidazole], the EC50 (commonly the concentration giving half of the maximal effect) stood at 200 nM.
As for `Fc1cc([C@@H]2C[C@H]2c2cnc(-c3ncccn3)nc2)cc(OCc2nccs2)c1F` (relative stereo) [Example 218, trans-2-((5-(2-([2,2′-Bipyrimidin]-5-yl)cyclopropyl)-2,3-difluorophenoxy)methyl)thiazole], the EC50 is 57 nM.
As to `Fc1cc([C@@H]2C[C@H]2c2cnc(-c3ncccn3)nc2)cc(OCCCN2CCOCC2)c1F` (relative stereo) [Example 240, trans-4-(3-(5-(2-([2,2′-Bipyrimidin]-5-yl)cyclopropyl)-2,3-difluorophenoxy)propyl)morpholine], the EC50 was 210 nM.

Staying with this assay, now noted: read-out: sAg EC50; HepG2.2.15 cells; HBsAg in supernatant at day 6 after exposure to compound; 0.5% DMSO.
For the compound `O[C@H]1CCN(c2cc(C3CC3c3cnc(-c4ncccn4)nc3)cc(Cl)c2F)C1` (single isomer, unassigned) [Example 120], the EC50 stood at 99 nM.
Take `O[C@@H]1CCN(c2cc(C3CC3c3cnc(-c4ncccn4)nc3)cc(Cl)c2F)C1` (single isomer, unassigned) [Example 127]: the EC50 is 110 nM.
As to `COCCCn1ncc2c(C3CC3c3cnc(-c4ncccn4)nc3)cc(F)c(F)c21` (single isomer, unassigned) [Example 266, trans-4-(2-([2,2′-Bipyrimidin]-5-yl)cyclopropyl)-6,7-difluoro-1-(3-methoxypropyl)-1H-indazole], the EC50 was found to be 2 nM.
For the compound `CO[C@H]1CCN(c2cc(C3CC3c3cnc(-c4ncccn4)nc3)cc(F)c2F)C1` (single isomer, unassigned) [Example 103], the EC50 was 8 nM.
Regarding `Fc1cc(C2CC2c2cnc(-c3ncccn3)nc2)cc(F)c1F` (single isomer, unassigned) [Example 162, trans-5-(2-(3,4,5-Trifluorophenyl)cyclopropyl)-2,2′-bipyrimidine], the EC50 worked out at 160 nM.
`Fc1cc(C2CC2c2cnc(-c3ncccn3)nc2)cc(F)c1F` (single isomer, unassigned) [Example 161, trans-5-(2-(3,4,5-Trifluorophenyl)cyclopropyl)-2,2′-bipyrimidine]: the EC50 amounted to 10000 nM.
Same read-out and setting: next, `CC1(C)CCN(c2cc(C3CC3c3cnc(-c4ncccn4)nc3)cc(F)c2F)C1` (single isomer, unassigned) [Example 220, trans-5-(2-(3-(3,3-Dimethylpyrrolidin-1-yl)-4,5-difluorophenyl)cyclopropyl)-2,2′-bipyrimidine]: 30 nM; `Fc1c(Cl)cc(C2CC2c2cnc(-c3ncccn3)nc2)cc1N1CCCC1` (single isomer, unassigned) [Example 109, trans-5-(2-(3-Chloro-4-fluoro-5-(pyrrolidin-1-yl)phenyl)cyclopropyl)-2,2′-bipyrimidine]: 25 nM.
As for `Fc1cc(C2CC2c2cnc(-c3ncccn3)nc2)cc(OCC2CC2)c1F` (single isomer, unassigned) [Example 128, trans-5-(2-(3-(Cyclopropylmethoxy)-4,5-difluorophenyl)cyclopropyl)-2,2′-bipyrimidine], the EC50 is 420 nM.
For `Fc1cc(Cl)cc(C2CC2c2cnc(-c3ncccn3)nc2)c1` (single isomer, unassigned) [Example 118, trans-5-(2-(3-Chloro-5-fluorophenyl)cyclopropyl)-2,2′-bipyrimidine], the EC50 amounted to 2000 nM.
For the compound `CCCc1cc(F)c(OC)cc1C1CC1c1cnc(-c2ncccn2)nc1` (single isomer, unassigned) [Example 38, trans-5-(2-(4-Fluoro-5-methoxy-2-propylphenyl)cyclopropyl)-2,2′-bipyrimidine], the EC50 was 150 nM.
Consider `Clc1ccc(C2CC2c2cnc(-c3ncccn3)nc2)cc1N1CCCC1` (single isomer, unassigned) [Example 200, trans-5-(2-(4-Chloro-3-(pyrrolidin-1-yl)phenyl)cyclopropyl)-2,2′-bipyrimidine], for which the EC50 is 57 nM.
